What was measured:
Cavia porcellus [1] = organism: Cavia porcellus; experiment: Antimuscarinic effect determined by comparing ability to inhibit carbachol-induced guinea pig detrusor muscle contractions; type: functional
Cavia porcellus [2] = experiment: Effect on in vivo functional detrusor muscle contraction strength using guinea pig model of cystometrogram; parameters: species or system Muscle tissue
Cavia porcellus [3] = organism: Cavia porcellus; experiment: Duration of action at which functional detrusor muscle contraction strength was measured using guinea pig model of cystometrogram; parameters: species or system Muscle tissue

| SMILES | Kb (Cavia porcellus [1]) [nM] | Potency (Cavia porcellus [2]) | Duration (Cavia porcellus [3]) [min] |
| --- | --- | --- | --- |
| CCN(C)CC#CCCC(=O)C(O)(c1ccccc1)c1ccccc1 | 75.4 | 0.9 | 69 |
| CC(C)N(C)CC#CCCC(=O)C(O)(c1ccccc1)C1CCCCC1 (stereo not drawn) | 267 | 4.2 | 41 |
| CN(C)CC#CCCC(=O)C(O)(c1ccccc1)C1(C)CC1 (stereo not drawn) | 24 | 0.28 | 80 |
| CC(C)CC(O)(C(=O)CCC#CCN(C)C)c1ccccc1 (stereo not drawn) | 30.5 | 4.1 |  |
| O=C(CCC#CCNCc1ccccc1)C(O)(c1ccccc1)C1CCCCC1 (stereo not drawn) | 4200 |  |  |
| CCNCC#CCCC(=O)C(O)(c1ccccc1)C1CCCCC1 (stereo not drawn) | 232 | 0.98 | 85 |
| CCNCC#CCCC(=O)C(O)(c1ccccc1)C1CC1 (stereo not drawn) | 224 | 1.1 | 103 |
| CN(C)CC#CCCC(=O)C(O)(C1CCCCC1)C1CCCCC1 | 169 | 15.3 |  |
| CCN(CC)CC#CCCC(=O)C(O)(c1ccccc1)C1CC1 (stereo not drawn) | 58 | 0.98 | 80 |
| CCNCC#CCCC(=O)C(O)(c1ccccc1)C1CCC1 (stereo not drawn) | 224 | 1.1 | 103 |
| CCN(C)CC#CCCC(=O)C(O)(c1ccccc1)C1CCCCC1 (stereo not drawn) | 37 | 0.45 | 39 |
| CCN(CC)CC#CCCC(O)C(O)(c1ccccc1)C1CCCCC1 (stereo not drawn) | 1600 | 6.3 | 123 |
| CCN(CC)CC#CCCC(=O)C(C)(O)c1ccccc1 (stereo not drawn) | 5200 |  |  |
| CCNCC#CCCC(=O)C(O)(c1ccc(F)cc1)C1CCCCC1 (stereo not drawn) | 504 | 1.8 | 116 |
| CCN(C)CC#CCCC(=O)C(O)(c1ccccc1)C1CC1 (stereo not drawn) | 241 | 1.3 | 127 |
| CN(C)CC#CCCC(=O)C(O)(c1ccc(F)cc1)C1CCCCC1 (stereo not drawn) | 67.7 | 0.9 | 104 |
| NCC#CCCC(=O)C(O)(c1ccccc1)C1CCCCC1 (stereo not drawn) | 2100 |  |  |
| CCN(CC)CC#CCCC(=O)C(O)(c1ccccc1)C1CCCC1 (stereo not drawn) | 21 | 3.1 |  |
| CCN(C)CC#CCCC(=O)C(O)(c1ccccc1)C1CCC1 (stereo not drawn) | 7.5 | 0.86 | 168 |
| CCN(CC#CCCC(=O)C(O)(c1ccccc1)C1CCCCC1)C(C)C (stereo not drawn) | 217 | 3.3 | 23 |
| CN(C)CC#CCCC(=O)C(O)(c1ccccc1)C1CCCCC1 (stereo not drawn) | 38.7 | 0.48 | 126 |
| CN(C)CC#CCCC(=O)C(O[Si](C)(C)C)(c1ccccc1)C1CCCCC1 (stereo not drawn) | >5000 |  |  |
| CCCCN(CC#CCCC(=O)C(O)(c1ccccc1)C1CCCCC1)CCCC (stereo not drawn) | >5000 |  |  |
| CN(C)CC#CCCC(=O)C(O)(c1ccccc1)C1CCCC1 (stereo not drawn) | 2 | 0.33 | 98 |
| CCNCC#CCCC(=O)C(O)(c1ccccc1)c1ccccc1 | 200 | 1.5 | 54 |

| SMILES | Kb (Cavia porcellus [1]) [nM] | Potency (Cavia porcellus [2]) | Duration (Cavia porcellus [3]) [min] |
| --- | --- | --- | --- |
| CNCC#CCCC(=O)C(O)(c1ccccc1)C1CCCCC1 (stereo not drawn) | 71.2 | 0.48 | 48 |
| CN(C)CC#CCCC(=O)C(O)(c1ccccc1)C12CCC(CC1)CC2 (stereo not drawn) | 115 | 4.4 |  |
| CN(C)Cc1ccc(CCC(=O)C(O)(c2ccccc2)C2CCCCC2)cc1 (stereo not drawn) | 1900 |  |  |
| CCCCN(CC#CCCC(=O)C(O)(c1ccccc1)C1CCCCC1)CCC (stereo not drawn) | 142 | 2.6 | 74 |
| CN(C)CCCCCC(=O)C(O)(c1ccccc1)C1CCCCC1 (stereo not drawn) | 43 | 1.27 | 294 |
| CN(C)CC#CCCC(=O)C(O)(c1ccccc1)C1CC2CCC1C2 (stereo not drawn) | 90 | 0.9 | 242 |
| CN(C)CC#CC(CO)C(O)(c1ccccc1)C1CCCCC1 (stereo not drawn) | 99.7 | 7.38 |  |
| CN(CC#CCCC(=O)C(O)(c1ccccc1)C1CCCCC1)CCc1ccccc1 (stereo not drawn) | 551 | >10 |  |
| CN(C)CC#CCCC(=O)C(O)(c1ccccc1)C12C[C@H]3C[C@@H](C1)C[C@@H](C2)C3 (stereo partly drawn) | >5000 |  |  |
| CC(C)C(O)(C(=O)CCC#CCN(C)C)c1ccccc1 (stereo not drawn) | 18.3 | 0.48 | 80 |
| CN(C)CC#CCCC(=O)[C@@](O)(c1ccccc1)C1CCCCC1 | 209 | 3.6 | 88 |
| CN(C)CC#CCCC(=O)[C@](O)(c1ccccc1)C1CCCCC1 | 17 | 0.19 | 257 |
| CN(CC#CCCC(=O)C(O)(c1ccccc1)C1CCCCC1)CCO (stereo not drawn) | 257 |  |  |
| CC(C)N(CC#CCCC(=O)C(O)(c1ccccc1)C1CCCCC1)C(C)C (stereo not drawn) | 260 | 5.3 | 32 |
| CCN(CC)CC#CCCC(=O)C(O)(c1ccccc1)c1ccccc1 | 70.7 |  |  |
| CC(CC#CCN(C)C)C(=O)C(O)(c1ccccc1)C1CCCCC1 (stereo not drawn) | 163 | 2.1 | 39 |
| CN(C)CC#CCCC(=O)C(O)(c1ccccc1)c1ccccc1 | 70.1 | 0.59 | 45 |
| CCNCC#CCCC(=O)C(O)(c1ccccc1)C1CC2CCC1C2 (stereo not drawn) | 65 | 1.1 | 165 |
| CN(C)CC#CCCC(=O)C(O)(c1ccccc1)C1CC1 (stereo not drawn) | 35 | 0.48 | 89 |
| CC(C)NCC#CCCC(=O)C(O)(c1ccccc1)C1CCCCC1 (stereo not drawn) | 292 | 2.1 | 35 |
| CCN(CC)CC#CCCC(=O)C(O)(c1ccccc1)C1CCCCC1 (stereo not drawn) | 175 | 2.8 | 30 |
| CN(C)CC#CCCC(=O)C(O)(c1ccccc1)C1CCC1 (single isomer, unassigned; (+)) | 6.2 | 0.06 | 88 |
| CN(C)CC#CCCC(=O)C(O)(c1ccccc1)C1CCC1 (stereo in doubt; 14b) | 4.9 | 0.12 | 116 |
| CN(C)CC#CCCC(=O)C(O)(c1ccccc1)C1CCC1 (stereo in doubt; (-)-14b) | 149 | 2.5 | 40 |

Reference: ChEMBL document CHEMBL1125773, “Analogues of oxybutynin. Synthesis and antimuscarinic and bladder activity of some substituted 7-amino-1-hydroxy-5-heptyn-2-ones and related compounds” (1991)
